From PMC6169518 (Environmental science & technology, 2016)
Several values for one entry are separate records, joined by “and”; a condition that tells them apart may be missing. Equal entries are not always repeated.

Assays:
[1] = Quantification of FLC in mouse serum after single oral administration; type: in vivo; conditions: mice
rats = conditions: 45 and 90 days of dosing and last recovery day; cited from earlier work
[2] = rats and rabbits; cited from earlier work
[3] = test system: microsomal GST in mouse liver microsomes (MLM); experiment: Kinetic analysis of GSH conjugation; type: in vitro ADME
[4] = test system: cytosolic GST in mouse liver cytosols (MLC); experiment: Kinetic analysis of GSH conjugation; type: in vitro ADME; conditions: FLC-SG formation, Michaelis-Menten
[5] = test system: microsomal GST in human liver microsomes (HLM); experiment: Kinetic analysis of GSH conjugation; type: in vitro ADME
[6] = test system: Chinese Hamster Ovary K1 (CHO-K1) cells; conditions: cited from earlier work
[7] = 24-h excretion of unchanged FLC in mouse urine, feces and bile; type: in vivo; conditions: mice, oral, 0-24 h
[8] = test system: Human liver microsomes (HLM); experiment: Human liver microsome incubation of FLC; conditions: 60 min
[9] = test system: cytosolic GST in human liver cytosols (HLC); experiment: Kinetic analysis of GSH conjugation; type: in vitro ADME; conditions: FLC-SG formation, Michaelis-Menten
mice = experiment: Toxicity of FLC in mice fed diet containing 0.5% FLC for 10 days; type: in vivo; conditions: diet containing 0.5% FLC vs control diet
recombinant human CYPs = experiment: Oxidation of FLC by a panel of human recombinant CYP isozymes; type: in vitro ADME; conditions: 50 nM recombinant human CYPs, 60 min
[10] = test system: glutathione S-transferase (GST)
[11] = MLM, FLC-SG formation, Michaelis-Menten
[12] = HLM, FLC-SG formation, Michaelis-Menten

With `O=C1C(Cl)C(CCl)CN1c1cccc(C(F)(F)F)c1` (racemic) [FLC, (3RS,4RS;3RS,4SR)-3-chloro-4-chloromethyl-1-(α,α,α-tri-fluoro-m-tolyl)-2-pyrrolidone] the “concentration of FLC in serum” value ([1]; high dose group (50 mg/kg oral), 4 h post-dose) was 8020 ± 2810 nM, the “concentration of FLC in serum” value ([1]; high dose group (50 mg/kg oral), 24 h post-dose) was 285 ± 76 nM and the “concentration of FLC in serum” value ([1]; low dose group (5 mg/kg oral), 4 h post-dose) was 941 ± 220 nM. The “concentration of FLC in serum” value ([1]; low dose group (5 mg/kg oral), 24 h post-dose) was 53 ± 25 nM, the histopathological observations (rats) was “testis and epididymis lesions were consistently observed” and the “excretion rate of unchanged FLC” value [2] was “less than 1.5 % of the applied dose”. The “maximum clearance (Vmax/Km) of GSH conjugation, MLM over MLC” value ([3]; MLM vs MLC) was “approximately 11.2 fold”, the Km [3, 11] was 367 µM and the Vmax [3, 11] was 9.5 pmol·min^−1·mg protein^−1 and 9.50 pmol·min^−1·mg protein^−1. For the same compound, the Vmax [4] was 4.65 pmol·min^−1·mg protein^−1, the “maximum clearance (Vmax/Km) of GSH conjugation, HLM over HLC” value ([5]; HLM vs HLC) was “approximately 5.5 fold” and the Km [5, 12] was 374 µM. For the same compound, the Vmax [5, 12] was 5.63 pmol·min^−1·mg protein^−1, the DNA damage [6] was “induce single-strand DNA breaks” and the “24-h excretion of FLC in bile” value ([7]; bile) was “undetectable”. The “24-h excretion rate of FLC in feces” value ([7]; feces) was 1.21−1.40%, the parent compound consumed ([8]; HLM supplemented with NADPH) was “Approximately 30%” and the “more consumption of FLC” value ([8]; coincubation with GSH, NADPH and HLM) was 40%. For the same compound, the Km [9] was 148 µM, the Vmax [9] was 0.404 pmol·min^−1·mg protein^−1 and the “Alanine transaminase (ALT)” value (mice) was “elevated significantly”. The triglycerides (mice; hepatic) was “slightly increased” and the aqueous peroxide (mice; liver) was “slightly increased”.
For `O=C1C(Cl)C(CO)CN1c1cccc(C(F)(F)F)c1` (stereo not shown) [M3], the “CYP isozymes catalysing formation of the metabolite from FLC” value (“CYP isozymes catalysing formation” below) (recombinant human CYPs) was “CYP1A1, 1A2, 2C8, 2C9, 2E1, and 3A4”.
In the case of `O=C1C(Cl)C(CCl)C(O)N1c1cccc(C(F)(F)F)c1` (stereo not shown) [M5–1], the “CYP isozymes catalysing formation” value (recombinant human CYPs) is reported as “CYP1A1, 1A2, and 3A4”.
With `O=C1C(Cl)C(CCl)C(O)N1c1cccc(C(F)(F)F)c1` (stereo not shown) [M5–2] the “CYP isozymes catalysing formation” value (recombinant human CYPs) was “CYP1A1, 1A2, and 3A4”.
In the case of `N[C@@H](CCC(=O)N[C@@H](CSC1C(=O)N(c2cccc(C(F)(F)F)c2)CC1CCl)C(=O)NCC(=O)O)C(=O)O` (stereo partly shown) [M13], the “M13 detected in buffer” value ([10]; buffer with GSH, without microsomes or cytosols) is reported as “trace amount” and the “formation of M13 in microsomes relative to cytosols” value ([10]; microsomes vs cytosols, with GSH) is reported as “more than 2 fold”.
